What was measured:
[1] = target: T1, Human immunodeficiency virus type 1 protease (Human immunodeficiency virus 1, UniProt Q72874); assay: Tested in vitro for the ability to inhibit cleavage of a substrate by the wild type HIV-1 protease
[2] = target: T1, Human immunodeficiency virus type 1 protease; assay: Tested in vitro for potential potency against PI-resistant HIV virus by A-44 mutant enzyme variant
[3] = tested on: Human immunodeficiency virus 1; assay: Inhibition of the spread of viral infection in MT-4 human T-lymphoid cells infected by IIIb isolate; format: functional; conditions: read-out: CIC95
[4] = target: T1, Human immunodeficiency virus type 1 protease; assay: In vitro inhibitory activity against mutant HIV-1 (A-44)protease
[5] = target: T1, Human immunodeficiency virus type 1 protease; assay: In vitro inhibitory activity against wild type HIV-1 protease
Canis familiaris = species on record: Canis familiaris; assay: Tested for the pharmacokinetic data, time required to reach Cmax (Tmax) in dog; format: ADME, organism-based, Canis lupus familiaris; conditions: in vivo
[6] = Tested for the half life period in dog; format: ADME, organism-based, Canis lupus familiaris; conditions: in vivo
[7] = Tested for the pharmacokinetic data, maximum concentration (Cmax) in dog; format: ADME, organism-based, Canis lupus familiaris; conditions: in vivo
[8] = Tested for the pharmacokinetic data, area under the curve of concentration versus time in dog; format: ADME, organism-based, Canis lupus familiaris; conditions: in vivo
[9] = Tested for the pharmacokinetic data, maximum concentration (Cmax) in dog at dosage of 10 mpk; format: ADME, organism-based, Canis lupus familiaris; parameters: dose 10 mpk; conditions: in vivo, 10 mg/kg
[10] = Tested for the pharmacokinetic data, time required to reach Cmax (Tmax) in dog at dosage of 10 mpk; format: ADME, organism-based, Canis lupus familiaris; conditions: in vivo, 10 mg/kg
[11] = Tested for the pharmacokinetic data, area under the curve of concentration versus time in dog at dosage of 10 mpk; format: ADME, organism-based, Canis lupus familiaris; conditions: in vivo, 10 mg/kg
[12] = Tested for the half life period in dog at dosage of 10 mpk; format: ADME, organism-based, Canis lupus familiaris; conditions: in vivo, 10 mg/kg
[13] = Human immunodeficiency virus 1, T-lymphoid

Row | T max (Canis familiaris) | half-life [6] | Cmax [7] | AUC [8] | SMILES | IC95 [3, 13] | IC50 [4] | IC50 [5] | other results
1 | – | – | – | – | CN(C)c1ccc2cc(S(=O)(=O)N3CCN(C[C@@H](O)C[C@@H](Cc4ccccc4)C(=O)N[C@H]4c5ccccc5C[C@H]4O)[C@H](C(=O)NC(C)(C)C)C3)ccc2n1 | 0.0125 µM | – | – | IC50 [1]: < 0.0001 µM; IC50 [2]: < 0.0006 µM
2 | – | – | – | – | CC(C)(C)NC(=O)[C@@H]1CN(Cc2nc3ccccc3o2)CCN1C[C@@H](O)C[C@@H](Cc1ccccc1)C(=O)N[C@@H]1c2ccccc2C[C@H]1O | 0.4 µM | 0.066 µM | 0.0012 µM | –
3 | – | – | – | – | CC1=CSC2C(CN3CCN(C[C@@H](O)C[C@@H](Cc4ccccc4)C(=O)N[C@@H]4c5ccccc5C[C@H]4O)[C@H](C(=O)NC(C)(C)C)C3)N=CN12 (some centres not stated) | > 0.4 µM | 0.378 µM | 0.0067 µM | –
4 | – | – | – | – | Cn1nc(C(F)(F)F)cc1-c1ccc(CN2CCN(C[C@@H](O)C[C@@H](Cc3ccccc3)C(=O)N[C@@H]3c4ccccc4C[C@H]3O)[C@H](C(=O)NC(C)(C)C)C2)s1 | 0.025 µM | 0.0006 µM | 0.00013 µM | –
5 | – | – | – | – | CC(C)(C)NC(=O)[C@@H]1CN(Cc2cc3cc(F)ccc3o2)CCN1C[C@@H](O)C[C@@H](Cc1ccccc1)C(=O)N[C@@H]1c2ccccc2C[C@H]1O | 0.2 µM | 0.046 µM | 0.00094 µM | –
6 | 40 min | 43.4 min | 313 nM | 0.291 µM·h | CC(C)(C)NC(=O)[C@@H]1CN(Cc2cccnc2)CCN1C[C@@H](O)C[C@@H](Cc1cccnc1)C(=O)N[C@@H]1c2ccccc2C[C@H]1O | – | – | – | –
7 | – | – | – | – | CC(C)(C)NC(=O)[C@@H]1CN(CCCC(F)(F)F)CCN1C[C@@H](O)C[C@@H](Cc1ccccc1)C(=O)N[C@@H]1c2ccccc2C[C@H]1O | > 0.4 µM | 0.568 µM | 0.0153 µM | –
8 | – | – | – | – | CC(C)(C)NC(=O)[C@@H]1CN(Cc2cc3ccccc3o2)CCN1C[C@@H](O)C[C@@H](Cc1ccccc1)C(=O)NC1c2ccccc2C[C@H]1O (some centres not stated) | 0.05 µM | 0.024 µM | 0.00049 µM | –
9 | – | – | – | – | Cn1cc(CN2CCN(C[C@@H](O)C[C@@H](Cc3ccccc3)C(=O)N[C@@H]3c4ccccc4C[C@H]3O)[C@H](C(=O)NC(C)(C)C)C2)c2ccccc21 | > 0.4 µM | 0.332 µM | 0.0067 µM | –
10 | – | – | – | – | CC(C)(C)NC(=O)[C@@H]1CN(CC2(c3ccccc3)CC2)CCN1C[C@@H](O)C[C@@H](Cc1ccccc1)C(=O)N[C@@H]1c2ccccc2C[C@H]1O | > 0.4 µM | 0.257 µM | 0.0077 µM | –
11 | 40 min | 39.2 min | 378 nM | 0.371 µM·h | C[C@@H]1CC[C@@H](O)[C@@H]1NC(=O)[C@H](Cc1ccc(F)cc1)C[C@H](O)CN1CCN(Cc2cccnc2)C[C@H]1C(=O)NC(C)(C)C | – | – | – | –
12 | – | – | – | – | Cn1cc(CN2CCN(C[C@@H](O)C[C@@H](Cc3ccccc3)C(=O)N[C@@H]3c4ccccc4C[C@H]3O)[C@H](C(=O)NC(C)(C)C)C2)ccc1=O | 0.4 µM | 0.131 µM | 0.0022 µM | –
13 | 40 min | 48.2 min | 195 nM | 0.197 µM·h | CC(C)(C)NC(=O)[C@@H]1CN(Cc2cccnc2)CCN1C[C@@H](O)C[C@@H](Cc1ccc(F)cc1)C(=O)N[C@@H]1c2cccc(F)c2C[C@H]1O | – | – | – | –
14 | – | – | – | – | CN(C)c1ccc2ccc(S(=O)(=O)N3CCN(C[C@@H](O)C[C@@H](Cc4ccccc4)C(=O)N[C@@H]4c5ccccc5C[C@H]4O)[C@H](C(=O)NC(C)(C)C)C3)cc2n1 | 0.05 µM | 0.0022 µM | 0.00022 µM | –
15 | – | – | – | – | CC(C)(C)NC(=O)[C@@H]1CN(Cc2ncc(-c3ccccc3)s2)CCN1C[C@@H](O)C[C@@H](Cc1ccccc1)C(=O)N[C@@H]1c2ccccc2C[C@H]1O | 0.05 µM | 0.002 µM | 0.00026 µM | –
16 | – | – | – | – | CC(C)(C)NC(=O)[C@@H]1CN(Cc2noc3ccccc23)CCN1C[C@@H](O)C[C@@H](Cc1ccccc1)C(=O)NC1c2ccccc2C[C@H]1O (some centres not stated) | 0.4 µM | 0.0715 µM | 0.00117 µM | –
17 | – | – | – | – | CC(C)(C)NC(=O)[C@@H]1CN(Cc2nc3ccccc3s2)CCN1C[C@@H](O)C[C@@H](Cc1ccccc1)C(=O)N[C@@H]1c2ccccc2C[C@H]1O | 0.4 µM | 0.0717 µM | 0.0012 µM | –
18 | – | – | – | – | CC(C)(C)NC(=O)[C@@H]1CN(Cc2cccc(C(C)(C)NC(=O)OC(C)(C)C)c2)CCN1C[C@@H](O)C[C@@H](Cc1ccccc1)C(=O)N[C@@H]1c2ccccc2C[C@H]1O | > 0.4 µM | 0.392 µM | 0.028 µM | –

Row | T max (Canis familiaris) | half-life [6] | Cmax [7] | AUC [8] | SMILES | IC95 [3, 13] | IC50 [4] | IC50 [5] | other results
19 | – | – | – | – | CC(C)(C)NC(=O)[C@@H]1CN(Cc2ncc(-c3ccccc3)s2)CCN1C[C@@H](O)C[C@@H](Cc1ccccc1)C(=O)N[C@H]1c2ccccc2C[C@H]1O | 0.025 µM | – | – | IC50 [1]: < 0.0001 µM; IC50 [2]: < 0.0006 µM
20 | 40 min | 48.2 min | 148 nM | 0.236 µM·h | CC(C)(C)NC(=O)[C@@H]1CN(Cc2cccnc2)CCN1C[C@@H](O)C[C@@H](CC1CCCCC1)C(=O)NC1c2cccc(F)c2C[C@H]1O (single isomer, unassigned) | – | – | – | –
21 | 40 min | 23.4 min | 524 nM | 0.464 µM·h | C[C@@H]1CC[C@@H](O)C1NC(=O)[C@H](Cc1cccnc1)C[C@H](O)CN1CCN(Cc2cccnc2)C[C@H]1C(=O)NC(C)(C)C (single isomer, unassigned) | – | – | – | –
22 | 40 min | 50.5 min | 180 nM | 0.181 µM·h | CC(C)(C)NC(=O)[C@@H]1CN(Cc2cccnc2)CCN1C[C@@H](O)C[C@@H](Cc1ccc(F)cc1)C(=O)NC1c2cccc(Cl)c2C[C@H]1O (single isomer, unassigned) | – | – | – | –
23 | 40 min | 19 min | 996 nM | 0.839 µM·h | C[C@@H]1CC[C@@H](O)C1NC(=O)[C@H](CC1CC1)C[C@H](O)CN1CCN(Cc2cccnc2)C[C@H]1C(=O)NC(C)(C)C (single isomer, unassigned) | – | – | – | Cmax [9]: 6620 nM; Tmax [10]: 45 min; AUC [11]: 5.28 µM·h; half-life [12]: 41 min
24 | 40 min | 42.5 min | 483 nM | 0.504 µM·h | C[C@@H]1CC[C@@H](O)C1NC(=O)[C@H](CC1CCCCC1)C[C@H](O)CN1CCN(Cc2cccnc2)C[C@H]1C(=O)NC(C)(C)C (single isomer, unassigned) | – | – | – | Cmax [9]: 3760 nM; Tmax [10]: 25 min; AUC [11]: 3.83 µM·h; half-life [12]: 49 min
25 | 40 min | 23.9 min | 220 nM | 0.227 µM·h | CC(C)(C)NC(=O)[C@@H]1CN(Cc2cccnc2)CCN1C[C@@H](O)C[C@@H](Cc1cccnc1)C(=O)NC1c2cccc(Cl)c2C[C@H]1O (single isomer, unassigned) | – | – | – | –
26 | 40 min | 31.5 min | 554 nM | 0.512 µM·h | C[C@@H]1CC[C@@H](O)C1NC(=O)[C@H](Cc1ccccc1)C[C@H](O)CN1CCN(Cc2cccnc2)C[C@H]1C(=O)NC(C)(C)C (single isomer, unassigned) | – | – | – | –
27 | 40 min | 28.7 min | 268 nM | 0.245 µM·h | CC(C)(C)NC(=O)[C@@H]1CN(Cc2cccnc2)CCN1C[C@@H](O)C[C@@H](Cc1cccnc1)C(=O)NC1c2cccc(F)c2C[C@H]1O (single isomer, unassigned) | – | – | – | –
28 | 40 min | 44.6 min | 264 nM | 0.258 µM·h | CC(C)(C)NC(=O)[C@@H]1CN(Cc2cccnc2)CCN1C[C@@H](O)C[C@@H](Cc1ccc(F)cc1)C(=O)NC1c2ccccc2C[C@H]1O (single isomer, unassigned) | – | – | – | –
29 | 40 min | 44.5 min | 250 nM | 0.258 µM·h | CC(C)(C)NC(=O)[C@@H]1CN(Cc2cccnc2)CCN1C[C@@H](O)C[C@@H](Cc1ccccc1)C(=O)NC1c2cccc(F)c2C[C@H]1O (single isomer, unassigned) | – | – | – | –
30 | 40 min | 21.2 min | 651 nM | 0.566 µM·h | CC(C)(C)NC(=O)[C@@H]1CN(Cc2cccnc2)CCN1C[C@@H](O)C[C@@H](CC1CC1)C(=O)NC1c2ccccc2C[C@H]1O (single isomer, unassigned) | – | – | – | –
31 | 40 min | 54.4 min | 232 nM | 0.26 µM·h | CC(C)(C)NC(=O)[C@@H]1CN(Cc2cccnc2)CCN1C[C@@H](O)C[C@@H](CC1CCCCC1)C(=O)NC1c2ccccc2C[C@H]1O (single isomer, unassigned) | – | – | – | –
32 | 40 min | 23 min | 626 nM | 0.566 µM·h | CC(C)(C)NC(=O)[C@@H]1CN(Cc2cccnc2)CCN1C[C@@H](O)C[C@@H](CC1CC1)C(=O)NC1c2cccc(Cl)c2C[C@H]1O (single isomer, unassigned) | – | – | – | –
33 | 40 min | 20.2 min | 610 nM | 0.525 µM·h | CC(C)(C)NC(=O)[C@@H]1CN(Cc2cccnc2)CCN1C[C@@H](O)C[C@@H](CC1CC1)C(=O)NC1c2cccc(F)c2C[C@H]1O (single isomer, unassigned) | – | – | – | –
34 | 40 min | 81 min | 182 nM | 0.235 µM·h | CC(C)(C)NC(=O)[C@@H]1CN(Cc2cccnc2)CCN1C[C@@H](O)C[C@@H](CC1CCCCC1)C(=O)NC1c2cccc(Cl)c2C[C@H]1O (single isomer, unassigned) | – | – | – | Cmax [9]: 360 nM; Tmax [10]: 35 min; AUC [11]: 0.48 µM·h; half-life [12]: 53 min
35 | 40 min | 45.8 min | 250 nM | 0.256 µM·h | CC(C)(C)NC(=O)[C@@H]1CN(Cc2cccnc2)CCN1C[C@@H](O)C[C@@H](Cc1ccccc1)C(=O)NC1c2cccc(Cl)c2C[C@H]1O (single isomer, unassigned) | – | – | – | –

Row | SMILES | T max (Canis familiaris) | half-life [6] | Cmax [7] | AUC [8] | IC95 [3, 13] | IC50 [4] | IC50 [5] | other results
36 | CC(C)(C)NC(=O)[C@@H]1CN(Cc2cccnc2)CCN1C[C@@H](O)C[C@@H](Cc1ccccc1)C(=O)NC1c2ccccc2C[C@H]1O.O (single isomer, unassigned) [INDINAVIR] | 40 min | 27.1 min | 358 nM | 0.307 µM·h | 0.05 µM | – | – | IC95 [3]: 0.0505 µM

From ChEMBL document CHEMBL1135057, “A combinatorial library of indinavir analogues and its in vitro and in vivo studies” (Bioorg Med Chem Lett, 2002)
